This is an account of results in ChEMBL document CHEMBL1255305, “Affinity of doripenem and comparators to penicillin-binding proteins in Escherichia coli and Pseudomonas aeruginosa” (Antimicrob Agents Chemother, 2008).

Structures are written as SMILES. In brackets after ≈: the same amount, converted by molar mass. Activity calls are given as the source filed them. No cut-off for these calls is given here.

For orientation: IC50 means the point on the concentration scale where inhibition reaches its midpoint. A higher IC50 goes with weaker potency. As usually defined, the MIC is the least concentration at which growth counts as inhibited. Higher therefore signals a need for much substance.

A short description of experiment [1]: Inhibition of Bocillin FL binding to PBP5/6 in Pseudomonas aeruginosa 27853 membranes.
Experiment [2] in a line: Inhibition of Bocillin FL binding to PBP4 in Pseudomonas aeruginosa PAO1 membranes.
Experiment [3] in a line: Inhibition of Bocillin FL binding to PBP1A in Pseudomonas aeruginosa PAO1 membranes.
The nature of experiment [4]: Inhibition of Bocillin FL binding to PBP3 in Escherichia coli MC4100 membranes. Type of experiment: cell membranes.
Experiment [5] is described as follows: Inhibition of Bocillin FL binding to PBP4 in Pseudomonas aeruginosa 27853 membranes.
A short description of experiment [6]: Inhibition of Bocillin FL binding to PBP2 in Pseudomonas aeruginosa 27853 membranes.
Experiment [7] is described as follows: Inhibition of Bocillin FL binding to PBP5/6 in Pseudomonas aeruginosa PAO1 membranes.
The nature of experiment [8]: Inhibition of Bocillin FL binding to PBP5 in Escherichia coli MC4100 membranes. Type of experiment: cell membranes.
Experiment [9] can be described thus: Inhibition of Bocillin FL binding to PBP3 in Pseudomonas aeruginosa PAO1 membranes.
Experiment [10] in a line: Inhibition of Bocillin FL binding to PBP3 in Pseudomonas aeruginosa 27853 membranes.
Experiment [11] is described as follows: Inhibition of Bocillin FL binding to PBP1B in Escherichia coli MC4100 membranes. Type of experiment: cell membranes.
Experiment [12] in a line: Inhibition of Bocillin FL binding to PBP1A in Pseudomonas aeruginosa 27853 membranes.
A short description of experiment [13]: Inhibition of Bocillin FL binding to PBP1A in Escherichia coli MC4100 membranes. Type of experiment: cell membranes.
Experiment [14] is described as follows: Inhibition of Bocillin FL binding to PBP2 in Escherichia coli MC4100 membranes. Type of experiment: cell membranes.
Experiment [15] is described as follows: Inhibition of Bocillin FL binding to PBP2 in Pseudomonas aeruginosa PAO1 membranes.
Experiment [16] is described as follows: Inhibition of Bocillin FL binding to PBP6 in Escherichia coli MC4100 membranes. Type of experiment: cell membranes.
A short description of experiment [17]: Inhibition of Bocillin FL binding to PBP1B in Pseudomonas aeruginosa 27853 membranes.
Experiment [18] is described as follows: Inhibition of Bocillin FL binding to PBP1B in Pseudomonas aeruginosa PAO1 membranes.
Experiment [19] can be described thus: Inhibition of Bocillin FL binding to PBP4 in Escherichia coli MC4100 membranes. Type of experiment: cell membranes.
Experiment [20] has as its system Pseudomonas aeruginosa. Kind of experiment: Antimicrobial activity against Pseudomonas aeruginosa 27853 by CLSI protocol based broth microdilution method. Type of experiment: functional. For orientation: In broth dilution the organism is exposed to a series of concentrations in liquid medium.
The test system of experiment [21] is Escherichia coli. Kind of experiment: Antimicrobial activity against Escherichia coli MC4100 by CLSI protocol based broth microdilution method. Type of experiment: functional.
Experiment [22] deals with Pseudomonas aeruginosa. Kind of experiment: Antimicrobial activity against Pseudomonas aeruginosa PAO1 by CLSI protocol based broth microdilution method. Type of experiment: functional.
Experiment [23] relates to Pseudomonas aeruginosa. The experiment in a line: Induction of morphological changes in Pseudomonas aeruginosa 27853 assessed as induction of sphere formation at antimicrobial MIC after 60 mins by microscopy. Type of experiment: functional, organism-based.
The test system of experiment [24] is Pseudomonas aeruginosa. The experiment in a line: Induction of morphological changes in Pseudomonas aeruginosa 27853 assessed as increase in cell length at antimicrobial MIC after 240 mins by microscopy. Type of experiment: functional, organism-based.
Experiment [25] deals with Escherichia coli. The experiment in a line: Induction of morphological changes in Escherichia coli MC4100 assessed as induction of sphere formation at antimicrobial MIC after 4 hrs by microscopy. Type of experiment: functional, organism-based.
Experiment [26] relates to Pseudomonas aeruginosa. The experiment in a line: Induction of morphological changes in Pseudomonas aeruginosa 27853 assessed as induction of sphere formation at antimicrobial MIC after 240 mins by microscopy. Type of experiment: functional, organism-based.
The subject of experiment [27] is Pseudomonas aeruginosa. The experiment in a line: Induction of morphological changes in Pseudomonas aeruginosa 27853 assessed as increase in cell length at antimicrobial MIC after 60 mins by microscopy. Type of experiment: functional, organism-based.

`C[C@H]1[C@H](NC(=O)/C(=N\OC(C)(C)C(=O)O)c2csc(N)n2)C(=O)N1S(=O)(=O)O` [AZTREONAM]: the IC50 in experiment [1] was > 4 µg/mL; in [2] it was 16 µg/mL (≈ 36.7 µM); in [3] it was 2 µg/mL (≈ 4.59 µM); in experiment [4], 0.03 µg/mL (≈ 0.0689 µM); in experiment [5], > 4 µg/mL; in [6], 4 µg/mL (≈ 9.19 µM). Moreover, the half-inhibitory concentration (IC50) in experiment [7] is > 16 µg/mL; in experiment [8], > 8 µg/mL; in experiment [9], 0.03 µg/mL (≈ 0.0689 µM); in experiment [10], < 0.02 µg/mL; in experiment [11], > 8 µg/mL; in [12] it was 2 µg/mL (≈ 4.59 µM). Moreover, the half-maximal inhibitory concentration (IC50) in experiment [13] was > 8 µg/mL; in [14], > 8 µg/mL; in experiment [15] it was 16 µg/mL (≈ 36.7 µM); in [16], > 8 µg/mL; in experiment [17], 2 µg/mL (≈ 4.59 µM); in [18], 2 µg/mL (≈ 4.59 µM). Also, the IC50 in experiment [19] is > 8 µg/mL.
With `CC(C)(O/N=C(\C(=O)N[C@@H]1C(=O)N2C(C(=O)[O-])=C(C[n+]3ccccc3)CS[C@H]12)c1csc(N)n1)C(=O)O` [CEFTAZIDIME], the 50% inhibitory concentration (IC50) in experiment [1] was > 4 µg/mL; in experiment [2], 2 µg/mL (≈ 3.66 µM); in [3], 0.2 µg/mL (≈ 0.366 µM); in experiment [4] it was 0.07 µg/mL (≈ 0.128 µM); in experiment [5], 2 µg/mL (≈ 3.66 µM); in experiment [6], 4 µg/mL (≈ 7.32 µM). The IC50 in [7] is > 32 µg/mL; in [8], > 4 µg/mL; in [9], 0.1 µg/mL (≈ 0.183 µM); in experiment [10], 0.1 µg/mL (≈ 0.183 µM); in [11], 1.1 µg/mL (≈ 2.01 µM); in experiment [12], 0.3 µg/mL (≈ 0.549 µM). In addition, the half-inhibitory concentration (IC50) in [13] is 1.1 µg/mL (≈ 2.01 µM); in [14] it was 4 µg/mL (≈ 7.32 µM); in [15], > 32 µg/mL; in [16] it was > 4 µg/mL; in [17], 1.6 µg/mL (≈ 2.93 µM); in experiment [18], 3 µg/mL (≈ 5.49 µM). In experiment [19], the IC50 is > 4 µg/mL. Besides, the MIC against Pseudomonas aeruginosa [20] came to 1 µg/mL (≈ 1.83 µM); against Escherichia coli [21], 0.12 µg/mL (≈ 0.22 µM); with Pseudomonas aeruginosa [22], 1 µg/mL (≈ 1.83 µM).
Take `C[C@@H](O)[C@H]1C(=O)N2C(C(=O)O)=C(S[C@@H]3CN[C@H](CNS(N)(=O)=O)C3)[C@H](C)[C@H]12` [DORIPENEM]: the IC50 in experiment [1] was > 4 µg/mL; in [2], 0.008 µg/mL (≈ 0.019 µM); in experiment [3], 0.5 µg/mL (≈ 1.19 µM); in [4] it was 2 µg/mL (≈ 4.76 µM); in experiment [5], < 0.008 µg/mL; in experiment [6] it was 0.04 µg/mL (≈ 0.0951 µM). Further, the 50% inhibitory concentration (IC50) in experiment [7] was determined as 8 µg/mL (≈ 19 µM); in [8], 4 µg/mL (≈ 9.51 µM); in experiment [9] it was 0.07 µg/mL (≈ 0.166 µM); in experiment [10], 0.06 µg/mL (≈ 0.143 µM); in experiment [11], 1.2 µg/mL (≈ 2.85 µM); in experiment [12] it was 0.8 µg/mL (≈ 1.9 µM). In addition, the half-maximal inhibitory concentration (IC50) is 1.2 µg/mL (≈ 2.85 µM) in experiment [13]; 0.008 µg/mL (≈ 0.019 µM) in [14]; 0.06 µg/mL (≈ 0.143 µM) in experiment [15]; 1 µg/mL (≈ 2.38 µM) in experiment [16]; 0.6 µg/mL (≈ 1.43 µM) in experiment [17]; 0.6 µg/mL (≈ 1.43 µM) in [18]. In [19], this molecule displayed an IC50 of 0.02 µg/mL (≈ 0.0476 µM). In addition, the minimum inhibitory concentration (MIC) came out at 0.25 µg/mL (≈ 0.595 µM) against Pseudomonas aeruginosa [20], 0.03 µg/mL (≈ 0.0713 µM) in the experiment with Escherichia coli [21] and 0.25 µg/mL (≈ 0.595 µM) with Pseudomonas aeruginosa [22]. For the same molecule, the result with Pseudomonas aeruginosa [23], with Pseudomonas aeruginosa [24] and in the experiment on Escherichia coli [25] was Active.
In the case of `C[C@@H](O)[C@H]1C(=O)N2C(C(=O)O)=C(SCCNC=N)C[C@H]12` [IMIPENEM ANHYDROUS], the concentration for half-maximal inhibition (IC50) is 1 µg/mL (≈ 3.34 µM) in experiment [1]; 0.008 µg/mL (≈ 0.0267 µM) in [2]; 0.1 µg/mL (≈ 0.334 µM) in experiment [3]; 8 µg/mL (≈ 26.7 µM) in experiment [4]; < 0.008 µg/mL in [5]; 0.1 µg/mL (≈ 0.334 µM) in experiment [6]. In addition, the half-maximal inhibitory concentration (IC50) was 2 µg/mL (≈ 6.68 µM) in experiment [7]; 0.4 µg/mL (≈ 1.34 µM) in experiment [8]; 0.09 µg/mL (≈ 0.301 µM) in [9]; 0.3 µg/mL (≈ 1 µM) in [10]; 0.4 µg/mL (≈ 1.34 µM) in [11]; 0.1 µg/mL (≈ 0.334 µM) in experiment [12]. In addition, the half-inhibitory concentration (IC50) in experiment [13] worked out at 0.5 µg/mL (≈ 1.67 µM); in [14] it was 0.008 µg/mL (≈ 0.0267 µM); in [15], 0.1 µg/mL (≈ 0.334 µM); in experiment [16], 0.1 µg/mL (≈ 0.334 µM); in experiment [17] it was 0.1 µg/mL (≈ 0.334 µM); in experiment [18], 0.2 µg/mL (≈ 0.668 µM). Further, the IC50 in experiment [19] worked out at 0.01 µg/mL (≈ 0.0334 µM). Further, the minimum inhibitory concentration (MIC) against Pseudomonas aeruginosa [20] turned out to be 2 µg/mL (≈ 6.68 µM); against Escherichia coli [21], 0.25 µg/mL (≈ 0.835 µM); in the experiment with Pseudomonas aeruginosa [22] it was 1 µg/mL (≈ 3.34 µM). In addition, the result in the experiment with Pseudomonas aeruginosa [26] and with Escherichia coli [25] was Active.
As for `C[C@@H](O)[C@H]1C(=O)N2C(C(=O)O)=C(S[C@@H]3CN[C@H](C(=O)N(C)C)C3)[C@H](C)[C@H]12` [MEROPENEM], the concentration for half-maximal inhibition (IC50) in [1] is > 4 µg/mL; in experiment [2], 0.008 µg/mL (≈ 0.0209 µM); in experiment [3], 0.5 µg/mL (≈ 1.3 µM); in experiment [4], 0.6 µg/mL (≈ 1.56 µM); in experiment [5] it was 0.02 µg/mL (≈ 0.0522 µM); in experiment [6], 0.06 µg/mL (≈ 0.156 µM). Further, the IC50 in experiment [7] came out at 16 µg/mL (≈ 41.7 µM); in experiment [8] it was 4 µg/mL (≈ 10.4 µM); in experiment [9], 0.08 µg/mL (≈ 0.209 µM); in [10], 0.08 µg/mL (≈ 0.209 µM); in [11] it was 1.3 µg/mL (≈ 3.39 µM); in experiment [12], 0.6 µg/mL (≈ 1.56 µM). For the same molecule, the half-inhibitory concentration (IC50) was 1.7 µg/mL (≈ 4.43 µM) in experiment [13]; 0.008 µg/mL (≈ 0.0209 µM) in experiment [14]; 0.05 µg/mL (≈ 0.13 µM) in [15]; 0.03 µg/mL (≈ 0.0782 µM) in experiment [16]; 0.6 µg/mL (≈ 1.56 µM) in experiment [17]; 0.5 µg/mL (≈ 1.3 µM) in experiment [18]. This molecule also showed a 50% inhibitory concentration (IC50) in experiment [19] of 0.02 µg/mL (≈ 0.0522 µM). Besides, the MIC stood at 0.25 µg/mL (≈ 0.652 µM) in the experiment on Pseudomonas aeruginosa [20], 0.03 µg/mL (≈ 0.0782 µM) against Escherichia coli [21] and 0.5 µg/mL (≈ 1.3 µM) in the experiment with Pseudomonas aeruginosa [22]. For the same molecule, the outcome in the experiment with Pseudomonas aeruginosa [27], with Pseudomonas aeruginosa [24] and with Escherichia coli [25] was Active.
